The source of these data is patent US9801373B2, “Compounds for alleviating phosphate starvation symptoms in plants” (Commissariat a l'Energie Atomique et aux Energies …, priority 2012, dated 2017).

Common to all, as to type: in vivo, Arabidopsis thaliana
One series deals with lpr1 mutant. Description: Shoot growth of lpr1 mutant. The conditions noted are these: −Pi, 28-days-old plants. How it is done:
(§1) In the Pi deficient medium, NaCl (0.5 mM) was used to replace the equivalent amount of sodium provided by NaH2PO4. For controls of the effects of the compounds, 1% of DMSO (Dimethyl sulfoxid, SIGMA, 472301), solvent for the tested compounds, was added. After 2 days at 4° C., the plates were placed in a vertical position and plants were grown in a culture chamber under a 16 h light/8 h dark regime (24/21° C., 150 μE m^−2s^−1). For 4 weeks culture, large plates (24×24 cm) were placed in a horizontal position. Root architecture and aerial part area were quantified using program ImageJ.

The subject of series [1] is lpr1, lpr2 and lpi mutants. Briefly: Primary root growth of mutants with reduced root sensitivity to Pi starvation. The conditions noted are these: 7-days-old plants, PTN1 40 μM, FIG. 8. From the text: (§2) A “chemical genetics” approach has been carried out to isolate compounds that inhibit the phosphate (Pi) response in Arabidopsis thaliana. Compounds were screened for their ability to inhibit the expression of a phosphate starvation marker, namely the high affinity Pi transporter PHT1,4 gene. For the screening, the A. thaliana pht1;4-1 line (ecotype Wassilewskija) was chosen (Misson et al., 2004). It contains a T-DNA construct inserted into Pht1;4 gene creating a transcriptional fusion with a GUS reporter gene. For phenotypic analyses, A. thaliana Columbia and various lines derived from this ecotype were used. They are either transgenic lines expressing reporter gene as cycB1::GUS (Colón Carmona et al., 1999), MGD3::LUC, PHT1;4::LUC, At1g73010::LUC or various mutants affecting root response to low Pi such as: pdr2 (Ticconi et al., 2004), lpr1, lpr2 (Svistoonoff et al., 2007), lpi1, lpi2 and lpi3 (Sanchez-Calderon et al., 2006).
In the Pi deficient medium, NaCl (0.5 mM) was used to replace the equivalent amount of sodium provided by NaH2PO4. For controls of the effects of the compounds, 1% of DMSO (Dimethyl sulfoxid, SIGMA, 472301), solvent for the tested compounds, was added. […] Root architecture and aerial part area were quantified using program ImageJ.

Another series concerns wild-type (WT) seedlings. Briefly: Primary root growth of wild-type seedlings. The conditions noted are these: for activity of PTN1 analogues (inhibitor activity of PHT1;4 expression and effect on the growth): WT seedlings, FIG. 6; for concentration at which active on primary root growth: −Pi. The protocol: as §1
A further series has as its system PHT1;4 expression. Briefly: Chemical genetics screen, GUS staining of pht1;4-1 reporter line.
Description: as §2
For the screening, the LATCA collection of 3600 biologically active compounds (Zhao et al., 2007) was used at a final concentration of 25 μM in 1% DMSO. Four to five Arabidopsis seeds of pht1;4-1 (Misson et al., 2004) reporter line were sown in 96-well plates containing 100 μL liquid MS/10 medium with 500 μM of Pi at pH 5.7. After 2 days at 4° C., plants were grown for five days in a culture chamber under a 16 h light/8 h dark regime (24/21° C., 150 μE m^−2s^−1). Medium was then replaced by MS/10 with only 5 μM Pi and the tested compounds were added to the 96-well plates. […] Five days later, plantlets were analysed by GUS staining to assay the activity of the reporter gene inserted in pht1;4 gene. […] Then, plates were analysed using a MZ16 stereomicroscope (Leica microsystems, Germany).
The GUS activity was detected as previously described by Jefferson et al. (1987), using a GUS staining solution containing 50 mM sodium phosphate buffer pH 7.0; 0.01% Triton X-100, 1 mM K3Fe(CN)6, 1 mM K4Fe(CN)6, 1 mg/ml 5-bromo-4-chloro-3-indolyl B-D-glucuronide (X-Gluc). […]

The subject of another series is PHT1 genes (PHT1;4). Briefly: qPCR of PHT1 transcript level on root mRNA. The conditions noted are these: qPCR on root mRNA, FIG. 2 (B). The protocol: Plant RNA was extracted with the RNeasy kit (QIAGEN, France). For transcriptome data, RNA were analysed by the CATMA technology (Complete Arabidopsis Transcriptome Microarray). For qPCR, poly(dT) cDNA were prepared from 500 ng total RNA with Superscript III reverse transcriptase (Invitrogen, France) and analysed on a LightCycler 480 apparatus (Roche Diagnostics, France) with the SYBR Green I Master kit (Roche Diagnostics, France) according to the manufacturer's instructions. Targets were quantified with specific primer pairs designed with Primer3 website (http://frodo.wi.mit.edu/primer3/) (see Table II below). Biological triplicates were performed for all experiments. Expression levels were normalized using At2g16600, At3g04120, At1g35160 and At1g32050 genes.

Each structure is given as a SMILES string.

For the compound `Clc1ccc(SSc2ccc(Cl)cc2)cc1` [PTN4], in the series with lpr1 mutant, the “growth of the lpr1 rosette” value is listed as “+25%”. Moreover, the “primary root growth of lpr1 or lpi mutants” value in series [1] was “no additive effect”. Besides, the “primary root growth at various external Pi concentrations (15-250 uM)” value in the series on wild-type (WT) seedlings (10 uM, 5 days on Pi rich medium then 24 hours on tested conditions, FIG. 7 (D)) is reported as “improved root growth until 50/75 μM of Pi”. For the same compound, the “activity of PTN1 analogues (inhibitor activity of PHT1;4 expression and effect on the growth)” value in the series on wild-type (WT) seedlings was “Active”. Besides, the “concentration at which active on primary root growth” value in the series with wild-type (WT) seedlings (FIG. 7 (A)) turned out to be 10 µM.

On to `Sc1ccc(Cl)cc1` [PTN3, 4-chlorothiophenol], for which the “activity of PTN1 analogues (inhibitor activity of PHT1;4 expression and effect on the growth)” value in the series with wild-type (WT) seedlings was “Active”. In the series on wild-type (WT) seedlings (WT, 7-day-old plantlets, FIG. 7 (A)), the “primary root growth on −Pi” value is “sustained also the primary root growth”. Further, the “concentration at which active on primary root growth” value in the series with wild-type (WT) seedlings (FIG. 7 (A)) turned out to be 100 µM. Moreover, in the series with PHT1;4 expression (100 μM), the “PHT1;4 expression (analogue test)” value is reported as “repressed PHT1;4 expression”.

For `CS(=O)(=O)C1=C2C=CCCC2=C(C(=O)Sc2ccc(Cl)cc2)C1` [PTN2], the “effect on PHT1;4 transcript level” value with PHT1 genes (PHT1;4) was “dose dependant manner”. Besides, the “toxicity as cause of reduced reporter gene expression” value with PHT1;4 expression (25 μM, 5 days on −Pi) is “not explained by toxicity”.
